According to patent US10947276B2, “Cell penetrating peptides with improved internalization properties” (SORBONNE UNIVERSITE, priority 2016, dated 2021):

Experiments:
[1] = Peptide stability in human serum by MALDI-TOF mass spectrometry; type: in vitro ADME; details: for stability (integrity) compared to control Mut3DPT: 37° C., human serum/plasma, 0 to 24 h
Experimental: A) Mut3DPT, Mut4DPT, Mut5DPT, Mut6DPT and Mut7DPT peptides were incubated at 37° C. in human serum for different periods of time and their integrity (percentage of intact peptide) were analyzed by mass spectrometry. Similar results were obtained in two independent experiments.
FIG. 5. Mut3DPT, Tat, Penetratin and R8 were treated and analyzed as above. The stability is referred to the intensity of the peaks.
Mut3DPT, as well as Mut4DPT, Mut5DPT, Mut6DPT and Mut7DPT were incubated at 37° C. in 250 μl human serum for different periods of time. Samples were collected and peptide degradation stopped by freezing. Peptides were extracted from collected samples using the ProteoMiner Protein Enrichment System (Bio-Rad). Peptide integrity (percentage of intact peptide) was analyzed by mass spectrometry using a MALDI-TOF (Brücker Autoflex II) following their standard protocols. Every measurement was performed by triplicate. MS data were analyzed using appropriate software (Clinprot tools, Flex analysis, Brücker).
The inventors have analyzed whether these new generated peptides have enhanced stability in plasma, compared to the control Mut3DPT. The peptides were incubated for different periods of time (from 0 to 24 h) at 37° C. with human plasma and their stability was analyzed by mass spectrometry (MS). […] The synthetic peptides Mut5DPT, Mut6DPT and Mut7DPT are also very stable to proteases degradation, compared to the control peptide Mut3DPT. Taken together, we can conclude that there is no modification of the stability upon 24 h of incubation with human serum.

[2] = test system: MCF-7, PBMC; assay: Internalization of shuttles by fluorescence microscopy, mass spectrometry and flow cytometry; type: cell-based, human; details: MCF-7 25 μM (microscopy), 100 μM (MS); B cells of PBMC 100 μM 4 h
Experimental: A) MCF-7 cells were grown on coverslips and incubated 1 h at 37° C. with 25 μM of FITC-labelled peptides. Cells were washed 3 times with PBS, fixed with 4% paraphormaldeyde (PFA) and analyzed by fluorescence microscopy. Quantification of the microscopy images is shown. B) MCF7 were grown as above and incubated for different periods of time at 37° C. with 25 μM of FITC-labelled shuttles. Cells were treated as above and analyzed by fluorescence microscopy.
MCF-7 cells were cultured 4 h with 100 μM of each shuttle. After several washing steps, they were lysed and the extracts centrifuged. The intracellular peptide was detected by MS. Pure peptide was used as a control of molecular weight.
A) B cells were isolated (anti-hCD19-APC antibody) from peripheral blood mononuclear cells (PBMC) of healthy donors (HD) or B) chronic lymphocytic leukemia (CLL) patients. Cells were incubated 4 h with 100 μM of the FITC-labelled shuttles. The mean fluorescence intensity was detected by flow cytometry. Non treated cells were used as control.
Peripheral blood mononuclear cells from healthy (HD) donors or chronic lymphocytic leukaemia patients (CLL) were treated with FITC-labelled peptides and them, cells were harvested and washed twice with PBS to remove the extracellular unbound peptide. FITC fluorescence intensity of internalized peptide was measured by flow cytometry (BD Biosciences) by acquiring 10,000 live cells. B cells were selected with anti hCD19-APC labelled antibody. Experiments were carried out three times in duplicate. Untreated cells were used as control.
(§1) For intracellular localization of FITC-labelled peptides, MDA-MB231 or MCF7 cells were seeded in an 8-well Labtek (Thermo Fischer) at a density of 2×10^4 cells/well. Cells were treated with different concentrations of FITC-labelled peptides for different times. Cells were fixed with 4% of formaldehyde for 15 min at room temperature. Samples were washed twice with PBS and mounted in mounting solution containing DAPI. Images were captured with a fluorescence microscopy (Olympus Japan) using 63× magnification objective.
To detect the internalization of the peptides, breast cancer cell line MCF-7 cells were seeded in a 6-well plate at a density of 1×10^6 cells/well in DMEM medium supplemented with 10% FCS. Cells were treated with 100 μM of each shuttle for 4 h at 37° C., then cells were washed once with PBS. Cell pellet was collected by detaching with Trypsin EDTA following several washing step with PBS. Cells were resuspended in lysis buffer (Tris-HCl 50 mM, NaCl 20 mM, pH 8.0, supplemented with protease inhibitors) and lysed with Glass/Teflon potter (Elvehjem homogenizers), then centrifuged for 20 min at 16,000 g at 4° C. The peptides in the supernatant were concentrated with Ziptips (Millpore, ZTC18S096) according to the manufacture's protocol. The internalization of peptide was detected by mass spectrometry (MS) using a MALDI-TOF (Brucker Autoflx II). MS data were analyzed using appropriate software (Clinprot tools, Flex analysis, Brucker).
The inventors incubated the cells (MCF-7, PBMC) with the peptides at different concentrations (respectively 25 μM, and 100 μM) and analyzed the presence of the shuttles into the cells by fluorescence microscopy, mass spectrometry (MS) and flow cytometry.

[3] = test system: MDA-MB231 cells; assay: Intracellular localization of FITC-labelled peptides by fluorescence microscopy; type: cell-based, human; details: 30 μM, 4 h
Experimental: MDA-MB231 cells (3×10^4 cells/ml) were grown on cover slips and incubated 4 h with 30 μM of FITC-labelled peptides. Cells were washed 3 times with PBS, fixed with 4% paraformaldeyde (PFA) and analyzed by fluorescence microscopy. Cells treated with mut7DPT-FITC were used as control.
MDA-MB231 cells (3×10^4 cells/ml) were grown on cover slips and incubated with 30 μM of peptide for different periods of time. Cells were washed 3 times with PBS, fixed with 4% PFA and analyzed by fluorescence microscopy.
MDA-MB231 cells (3×10^4 cells/ml) were incubated in cover slips for 3 h with 15 μM of the FITC-labelled peptides associated to a cargo (TEAD or YAP peptides). Cells were washed 3 times with PBS, fixed with 4% PFA and analyzed by fluorescence microscopy.
as §1, with “was” for “or MCF7 cells were”, “3×10^4” for “2×10^4”, “fixed or not” for “fixed”

[4] = test system: MCF-7 cells; assay: Intracellular detection of FITC-labelled peptides by FACS; type: cell-based, human; details: MCF-7 (similar in Jurkat); for kinetic of internalization compared to control peptide Mut3DPT: 50 μM, different periods of time
Experimental: (§2) MCF-7 or Jurkat cell lines were cultured in the presence or in the absence of Mut3DPT (Panel A), Mut4DPT (Panel B), Mut5DPT (Panel C), Mut6DPT (Panel D) or Mut7DPT (Panel E) at 50 μM for different periods of time. The intensity of the FITC fluorescence due to the shuttle internalization was measured by FACS. The results presented in the figure correspond to MCF-7 cells. Similar results were obtained using Jurkat cell line.
as §2, with “different concentrations” for “50 μM”, “4 h.” for “different periods of time.”
Jurkat and MCF-7 cells were incubated with different concentrations of FITC-labeled peptides, then washed and analyzed by FACS in order to detect the intensity of fluorescence into the cells. Similarly, Jurkat and MCF-7 cells were incubated with a given peptide concentration at different times and after washing, cells were analyzed by FACS to estimate the intensity of fluorescence into the cells.
The inventors incubated the cells (Jurkat and MCF-7) with the peptides at different concentrations and different times and analyzed the intensity of the fluorescence into the cells by FACS. The result of kinetic of time incubation is shown on FIG. 1 and the kinetic of peptide concentration is shown on FIG. 2.

[5] = test system: MDA-MB231 cell line; assay: Toxicity of CPP-NLS peptides by FACS; details: 25 and 50 μM, 4 h of incubation
Experimental: MDA-MB231 cells (6×10^4 cells/ml) were incubated 4 h with two different concentrations of peptide. Toxicity was analyzed by flow cytometry. […] Non treated cells were used as a control.
The peptides were added to MDA-MB231 cell line at 25 and 50 μM and the toxicity was analyzed by FACS upon 4 h of incubation.

[6] = test system: MDA-MB231 cells; assay: Apoptosis by Annexin V-FITC staining, shuttles associated to TEAD cargo; type: cell-based, human; details: 10 and 25 μM, 4 h or 24 h
Experimental: MDA-MB231 cells (5×10^4 cells/ml) were cultured in the presence of different concentrations of shuttles or nuclear localization shuttles associated to the cargo TEAD for 4h or 24h (Non-treated, Panel A; Mut3DPT-TEAD, Panel B; NLS18, Panel C; NLS23, Panel D; NLS18 TEAD, Panel E, NLS23 TEAD, Panel F). Apoptosis was estimated by Annexin V-FITC staining. Cells treated with shuttle without cargo or nuclear localisation signal (NLS) were used as control. Standard deviation is shown.
The apoptosis induction of the different shuttles associated to a cargo (TEAD and YAP binding sites) was analyzed by annexinV-FITC staining (e Biosciences). Human breast cancer cell line MDA-MB231 was treated with different concentrations of peptide for 4 h and 24 h. After the treatment, cells were harvested, washed and treated according to the manufacturer protocol. The level of apoptosis was measured by flow cytometry (BD Biosciences, FACS Canto.
We further analyzed whether the weak apoptotic effect of the mut3DPT-TEAD peptide was increased in the new generated tri-functional peptides. Cells were cultured for 4 h or 24 h with 10 and 25 μM of NLS-18 or NLS-23 and apoptosis estimated by Annexin staining (FIG. 16). The association of TEAD interfering peptide to the NLS18 or NLS23 peptides strongly increases the apoptotic effect, compared to the control peptide.

## N=C(N)NCCC[C@H](NC(=O)[C@H](CCCNC(=N)N)NC(=O)[C@H](CCCNC(=N)N)NC(=O)[C@H](CCCNC(=N)N)NC(=O)[C@H](CCCNC(=N)N)NC(=O)[C@H](CCCNC(=N)N)NC(=O)[C@H](CCCNC(=N)N)NC(=O)[C@@H](N)CCCNC(=N)N)C(=O)O [Peptide R8, reference compound]
[1]; 6 h incubation with human serum at 37° C.
  degradation compared to control Mut3DPT: stronger degradation
[1]; 24 h incubation with human serum
  degradation: extensively degraded

## KKKKKWKKWKKK (Shuttle peptide Mut7DPT)
[2]
  internalization compared to the control peptide Mut3DPT: better internalization
  internalization, ranking among the new peptides: a better internalization
[3]
  nuclear staining: does not show nuclear staining
[1]
  stability (integrity) compared to control Mut3DPT: very stable
[4]; 50 μM FITC-labelled peptide
  time to plateau of internalization: 30 min
[5]
  toxicity: none of the peptides show toxicity

## KKWKKWKKWKK (Shuttle peptide Mut5DPT)
[2]
  internalization compared to the control peptide Mut3DPT: better internalization
[1]
  stability (integrity) compared to control Mut3DPT: very stable
[4]
  kinetic of internalization compared to control peptide Mut3DPT: better internalization

## RRWRRWRRWRR (Shuttle peptide Mut6DPT)
[2]
  internalization compared to the control peptide Mut3DPT: better internalization
  internalization, ranking among the new peptides: a better internalization
[1]
  stability (integrity) compared to control Mut3DPT: very stable
[4]; 50 μM FITC-labelled peptide, 1 min
  share of the total fluorescence achieved one minute after incubation: Around 50%
[4]; 50 μM FITC-labelled peptide
  time to plateau of internalization: 15 min
[4]
  kinetic of internalization compared to control peptide Mut3DPT: rapidly internalized

## VKKKKIKAEIKI-RLQLVEFSAFVEPPDAVD (VKKKKIKAEIKIRLQLVEFSAFVEPPDAVD; Mut3DPT-TEAD)
[6]
  apoptotic effect: weak

## VKKWKIKWWIKI (shuttle peptide Mut4DPT)
[2]
  internalization compared to the control peptide Mut3DPT: better internalization
[1]
  stability (integrity) compared to control Mut3DPT: as stable as the parental peptide
[4]
  kinetic of internalization compared to control peptide Mut3DPT: better internalization
